This passage reports T/C results from PubChem BioAssay AID256 (DTP/NCI, 2004).

Structures are written as SMILES. Values joined by “and” are separate entries in the source; they are usually repeats but may differ in a detail not shown here. Equal values may be shown once. Toxic doses and inconclusive results are not listed.

The subject of the test is CD2F1 mice, L1210 leukemia ip, survival T/C. Briefly: NCI In Vivo Anticancer Drug Screen. Data for tumor model L1210 Leukemia (intraperitoneal) in CD2F1 (CDF1) mice. To be noted: higher = longer survival. An outline of the steps: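 In this screen, transplantable tumors were grown in mice given either the compound or its vehicle. Results were expressed as the treated measurement relative to the control measurement.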

Setting [1] is: endpoint: mean survival time, dose: 100.0 mg/kg/injection, schedule: Q04DX003 (ip), vehicle: saline with Tween-80.
The mark [2] stands for this setting: endpoint: mean survival time, dose: 100.0 mg/kg/injection, schedule: Q01DX001 (ip), vehicle: saline with Tween-80.
Where [3] appears, read: endpoint: mean survival time, dose: 200.0 mg/kg/injection, schedule: Q01DX001 (ip), vehicle: saline with Tween-80.
[4] abbreviates: endpoint: mean survival time, dose: 400.0 mg/kg/injection, schedule: Q01DX001 (ip), vehicle: saline with Tween-80.
Where [5] appears, read: endpoint: mean survival time, dose: 200.0 mg/kg/injection, schedule: Q04DX003 (ip), vehicle: saline with Tween-80.
Where [6] appears, read: endpoint: mean survival time, dose: 100.0 mg/kg/injection, schedule: Q04DX002 (ip), vehicle: saline with Tween-80.
[7] abbreviates: endpoint: mean survival time, dose: 200.0 mg/kg/injection, schedule: Q04DX002 (ip), vehicle: saline with Tween-80.
The mark [8] stands for this setting: endpoint: mean survival time, dose: 400.0 mg/kg/injection, schedule: Q04DX002 (ip), vehicle: saline with Tween-80.
The mark [9] stands for this setting: endpoint: mean survival time, dose: 50.0 mg/kg/injection, schedule: Q01DX009 (ip), vehicle: saline with Tween-80.
[10] abbreviates: endpoint: mean survival time, dose: 100.0 mg/kg/injection, schedule: Q01DX009 (ip), vehicle: saline with Tween-80.
[11] abbreviates: endpoint: mean survival time, dose: 200.0 mg/kg/injection, schedule: Q01DX009 (ip), vehicle: saline with Tween-80.
The mark [12] stands for this setting: endpoint: mean survival time, dose: 100.0 mg/kg/injection, schedule: Q04DX003 (ip), vehicle: Klucel (hydroxypropylcellulose) (HPC).
The mark [13] stands for this setting: endpoint: mean survival time, dose: 200.0 mg/kg/injection, schedule: Q04DX003 (ip), vehicle: Klucel (hydroxypropylcellulose) (HPC).
The mark [14] stands for this setting: endpoint: mean survival time, dose: 150.0 mg/kg/injection, schedule: Q01DX001 (ip), vehicle: other.
Setting [15] is: endpoint: mean survival time, dose: 25.0 mg/kg/injection, schedule: Q01DX009 (ip), vehicle: saline with Tween-80.
The mark [16] stands for this setting: endpoint: mean survival time, dose: 400.0 mg/kg/injection, schedule: Q04DX003 (ip), vehicle: saline with Tween-80.
The mark [17] stands for this setting: endpoint: mean survival time, dose: 400.0 mg/kg/injection, schedule: Q01DX009 (ip), vehicle: saline with Tween-80.

Take `O=C(O)c1cc[c]([Hg][S]c2ncnc3nc[nH]c23)cc1`: the T/C reads like this: (endpoint: mean survival time, dose: 5.0 mg/kg/injection, schedule: Q01DX001 (ip), vehicle: saline) 98 % of control; (endpoint: mean survival time, dose: 10.0 mg/kg/injection, schedule: Q01DX001 (ip), vehicle: saline) 98 % of control; (endpoint: mean survival time, dose: 20.0 mg/kg/injection, schedule: Q01DX001 (ip), vehicle: saline) 101 % of control; (endpoint: mean survival time, dose: 25.0 mg/kg/injection, schedule: Q04DX003 (ip), vehicle: saline with Tween-80) 98 % of control; (endpoint: mean survival time, dose: 33.0 mg/kg/injection, schedule: Q04DX003 (ip), vehicle: saline sonified) 119 % of control; (endpoint: mean survival time, dose: 37.5 mg/kg/injection, schedule: Q01DX009 (ip), vehicle: saline sonified) 172 % of control. Further, the T/C was 98 % of control (endpoint: mean survival time, dose: 40.0 mg/kg/injection, schedule: Q01DX001 (ip), vehicle: saline); 119 % of control (endpoint: mean survival time, dose: 50.0 mg/kg/injection, schedule: Q04DX003 (ip), vehicle: saline sonified); 104 % of control (endpoint: mean survival time, dose: 50.0 mg/kg/injection, schedule: Q04DX003 (ip), vehicle: saline with Tween-80); 104 % of control (endpoint: mean survival time, dose: 80.0 mg/kg/injection, schedule: Q01DX001 (ip), vehicle: saline); 120 % of control (endpoint: mean survival time, dose: 100.0 mg/kg/injection, schedule: Q01DX009 (ip), vehicle: saline sonified); 121 % of control and 101 % of control under setting [1].
In the case of `O/N=C1\CCCCC1C(O)(/C(=N/O)c1ccccc1)c1ccccc1` (configuration not stated), the T/C is 96 % of control under setting [2], 86 % of control under setting [3] and 91 % of control under setting [4].
On to `CCCCC(O)CCCCCCCCCC(=O)O` (configuration not stated), for which the T/C was 97 % of control under setting [1] and 101 % of control under setting [5].
On to `CC(=O)[C@@]12O[C@@H]1C[C@H]1[C@@H]3CCC4=CC(=O)CC[C@]4(C)[C@H]3CC[C@@]12C`, for which the T/C by setting is: under setting [6], 96 % of control; under setting [7], 101 % of control; under setting [8], 96 % of control.
For `OCCNCc1ccc(Cl)cc1`, the T/C was 96 % of control under setting [9]; 98 % of control under setting [10]; 103 % of control under setting [1]; 93 % of control under setting [11]; 96 % of control under setting [5].
For the compound `[B-][N+]1(C)CC[N+]([B-])(C)CC1` (configuration not stated), the T/C is 104 % of control (endpoint: mean survival time, dose: 5.0 mg/kg/injection, schedule: Q01DX009 (ip), vehicle: saline with Tween-80); 103 % of control (endpoint: mean survival time, dose: 5.0 mg/kg/injection, schedule: Q04DX003 (ip), vehicle: saline); 96 % of control (endpoint: mean survival time, dose: 10.0 mg/kg/injection, schedule: Q01DX009 (ip), vehicle: saline with Tween-80); 98 % of control (endpoint: mean survival time, dose: 10.0 mg/kg/injection, schedule: Q04DX003 (ip), vehicle: saline); 98 % of control (endpoint: mean survival time, dose: 20.0 mg/kg/injection, schedule: Q04DX003 (ip), vehicle: saline).
With `C#CCCOC(=O)Nc1ccccc1`, the T/C is, setting by setting: under setting [12], 97 % of control; under setting [13], 100 % of control; (endpoint: mean survival time, dose: 400.0 mg/kg/injection, schedule: Q04DX003 (ip), vehicle: Klucel (hydroxypropylcellulose) (HPC)) 110 % of control.
Turning to `CN=C(Nc1ccc(OC)c2ccccc12)SC`, the T/C is 89 % of control under setting [12] and 91 % of control under setting [13].
For `CC1=C(/C=C/C(C)=C/C=C/C(C)=C/CO)C(C)(C)CCC1`, the T/C is, setting by setting: (endpoint: mean survival time, dose: 150.0 mg/kg/injection, schedule: Q01DX001 (ip), vehicle: alkali diluted with saline) 102 % of control; (endpoint: mean survival time, dose: 150.0 mg/kg/injection, schedule: Q01DX001 (ip), vehicle: distilled water + alcohol) 112 % of control; under setting [14], 112 % of control; (endpoint: mean survival time, dose: 150.0 mg/kg/injection, schedule: Q01DX001 (ip), vehicle: saline) 102 % of control; (endpoint: mean survival time, dose: 150.0 mg/kg/injection, schedule: Q11HX001 (ip), vehicle: saline) 102 % of control; (endpoint: mean survival time, dose: 300.0 mg/kg/injection, schedule: Q01DX001 (ip), vehicle: alkali diluted with saline) 99 % of control and 100 % of control. Also, the T/C reads like this: (endpoint: mean survival time, dose: 300.0 mg/kg/injection, schedule: Q01DX001 (ip), vehicle: distilled water + alcohol) 108 % of control; (endpoint: mean survival time, dose: 300.0 mg/kg/injection, schedule: Q01DX001 (ip), vehicle: other) 108 % of control; (endpoint: mean survival time, dose: 300.0 mg/kg/injection, schedule: Q01DX001 (ip), vehicle: saline) 103 % of control; (endpoint: mean survival time, dose: 300.0 mg/kg/injection, schedule: Q11HX001 (ip), vehicle: saline) 103 % of control.
Consider `[C-]#[O+].[C-]#[O+].[C-]#[O+].[C-]#[O+].[C-]#[O+].[C-]#[O+].[Cr]`, for which the T/C by setting is: under setting [15], 103 % of control; under setting [9], 97 % of control and 110 % of control; under setting [10], 112 % of control.
Regarding `Cc1ccc2[nH]c(=O)[nH]c(=O)c2n1`, the T/C reads like this: (endpoint: mean survival time, dose: 75.0 mg/kg/injection, schedule: Q01DX001 (ip), vehicle: other) 98 % of control; under setting [14], 98 % of control.
As to `CCOC(=O)C(C(=O)OCC)C1CCC2(C)CCC(=O)C=C2C1` (configuration not stated), the T/C under setting [6] is 100 % of control and 107 % of control and 108 % of control; the T/C under setting [7] was 100 % of control and 101 % of control and 104 % of control; the T/C under setting [8] is 98 % of control and 100 % of control; the T/C (endpoint: mean survival time, dose: 600.0 mg/kg/injection, schedule: Q04DX002 (ip), vehicle: saline with Tween-80) is 109 % of control.
`CS(=O)(=O)c1ccc(NN)c([N+](=O)[O-])c1`: the T/C runs as follows: under setting [1], 98 % of control; under setting [5], 98 % of control; under setting [16], 102 % of control.
On to `C=CCN(CC=C)CCNc1cc(C)nc(Nc2nc3ccc(Cl)cc3[nH]2)n1`, for which the T/C by setting is: under setting [2], 94 % of control; under setting [10], 86 % of control; under setting [3], 92 % of control; under setting [11], 93 % of control; under setting [4], 94 % of control; under setting [17], 100 % of control.
Turning to `O=c1[nH]c(=S)[nH]c(-c2ccc(Cl)cc2)c1CCO`, the T/C is, setting by setting: under setting [1], 94 % of control; under setting [5], 92 % of control; under setting [16], 90 % of control.
With `OCC(F)(F)C(F)(F)C(F)(F)CO`, the T/C runs as follows: (endpoint: mean survival time, dose: 100.0 mg/kg/injection, schedule: Q04DX003 (ip), vehicle: saline) 101 % of control; (endpoint: mean survival time, dose: 200.0 mg/kg/injection, schedule: Q04DX003 (ip), vehicle: saline) 107 % of control; (endpoint: mean survival time, dose: 400.0 mg/kg/injection, schedule: Q04DX003 (ip), vehicle: saline) 104 % of control.
As to `CC(C)OC(=O)N1C(=O)C2C3CCC(O3)C2C1=O` (configuration not stated), the T/C by setting is: under setting [15], 105 % of control; (endpoint: mean survival time, dose: 25.0 mg/kg/injection, schedule: Q04DX002 (ip), vehicle: saline with Tween-80) 101 % of control; under setting [9], 97 % of control; (endpoint: mean survival time, dose: 50.0 mg/kg/injection, schedule: Q04DX002 (ip), vehicle: saline with Tween-80) 101 % of control; under setting [10], 97 % of control; under setting [6], 106 % of control. In addition, the T/C under setting [8] was 97 % of control.
Turning to `O=[N+]([O-])c1ccc(CSc2ncnc3c2ncn3C2OC(CO)C(O)C2O)cc1` (configuration not stated), the T/C was 100 % of control (endpoint: median survival time, dose: 0.1 mg/kg/injection, schedule: Q01DX009 (ip), vehicle: saline); 105 % of control (endpoint: median survival time, dose: 1.0 mg/kg/injection, schedule: Q01DX009 (ip), vehicle: saline); 107 % of control (endpoint: median survival time, dose: 10.0 mg/kg/injection, schedule: Q01DX009 (ip), vehicle: saline).
As for `O=C1c2ccccc2C2c3ccccc3CCN12` (configuration not stated), the T/C under setting [10] was 103 % of control; the T/C under setting [1] is 104 % of control; the T/C under setting [11] is 97 % of control; the T/C under setting [5] is 102 % of control; the T/C under setting [17] is 97 % of control; the T/C under setting [16] was 102 % of control.
On to `OCC1=CCN(CCc2c[nH]c3ccccc23)CC1`, for which the T/C is, setting by setting: under setting [10], 96 % of control; under setting [11], 96 % of control.
